Test results published in patent publication US4350702A, “Method of inhibiting platelet aggregation” (Beecham Group Limited, priority 1975, dated 1982).
Structures can show the parent of a compound that is named as a salt.

tested on: platelet aggregation in response to collagen (human platelet-rich plasma); test: Inhibition of collagen-induced platelet aggregation in vitro (human platelet-rich plasma, photometric aggregometer); assay type: cell-based; details: 0.05 h, final concentration 100 μM, human PRP, 37°, 3 min incubation before collagen, just-maximal collagen dose, read-out: % Inhibition of the platelet aggregation response to collagen
Procedure: The compounds of the Examples above were tested for their ability to inhibit platelet aggregation in vitro as follows:
Platelet-rich-plasma (PRP) is prepared by centrifuging the anti-coagulated blood at 180 g., for 12 minutes, at room temperature. Collagen (3×-bovine achilles tendon) is suspended in 0.9% (w/v) saline, using a commercially available mixer emulsifier. PRP was mixed with 0.1 volumes saline (control) or compound dissolved in saline and incubated at 37° for 3 minutes, before the addition of collagen. Water-insoluble compounds were added to PRP, dissolved in 0.005 volumes dimethylformamide, the solvent being included in controls when appropriate. The final concentration of each compound was 100 μM.
The activity of each compound was expressed as percentage inhibition of the aggregation response to a dose of collagen producing a just-maximal change in light transmission in control PRP.

| SMILES | inhibition at 100 µM [%] |
| --- | --- |
| O=c1c2cc(Cl)ccc2sn1CCc1ccccn1 [Example 1, 5-Chloro-2[β-(2-pyridyl)ethyl]-1,2-benzisothiazol-3-one hydrochloride] | 100 |
| O=c1c2ccccc2sn1CCCCCCN1CC2CCC(CC2)C1 [Example 2, 2-[6-(3-azabicyclo[3.2.2]non-3-yl)-hexyl]-1,2-benzisothiazlol-3-one hydrochloride] | 100 |
| COc1cc2sn(CCc3ccccn3)c(=O)c2cc1OC [Example 3, 5,6-Dimethoxy-2[β-(2-pyridyl)ethyl]-1,2-benzisothiazol-3-one] | 100 |
| O=c1c2ccccc2sn1CNc1ccccn1 [Example 4, 2-[2'-Pyridylaminomethyl]-1,2-benzisothiazol-3-one] | 100 |
| O=c1c2ccccc2sn1N1CCOCC1 [Example 5, 2-(morpholino)-1,2-benzisothiazol-3-one] | 100 |
| O=c1c2cc(Cl)ccc2sn1-c1ccccn1 [Example 6] | 100 |
| O=c1c2cc(Cl)ccc2sn1-c1ncccn1 [Example 7] | 100 |
| O=c1c2ccccc2sn1CCc1ccccn1 [Example 9, 2-(β-2'-pyridylethyl)-1,2-benzisothiazol-3-one hydrochloride] | 100 |
| Cc1ccc2sn(CCc3ccccn3)c(=O)c2c1 [Example 10, 5-methyl-2-(β-2'-pyridylethyl)-1,2-benzisothiazol-3-one hydrochloride] | 100 |
| O=c1c2ccc(Cl)cc2sn1CCc1ccccn1 [Example 11, 6-chloro-2-(β-2'-pyridylethyl)-1,2-benzisothiazol-3-one hydrochloride] | 100 |
| O=c1c2cc(Cl)c(Cl)cc2sn1CCc1ccccn1 [Example 12] | 100 |
| O=c1c2ccccc2sn1CCN1CC2CCC(CC2)C1 [Example 13, 2-β-(3-azabicyclo[3.2.2]non-3-yl)ethyl-1,2-benzisothiazol-3-one hydrochloride] | 100 |
| O=c1c2cc(Cl)c(Cl)cc2sn1CCN1CC2CCC(CC2)C1 [Example 14, 5,6-dichloro-2-β-(3-azabicyclo[3.2.2]non-3-yl)ethyl-1,2-benzisothiazol-3-one] | 100 |
| COc1cc2sn(CCN3CC4CCC(CC4)C3)c(=O)c2cc1OC [Example 15, 5,6-dimethoxy-2-β-(3-azabicyclo[3.2.2]non-3-yl)ethyl 1,2-benzisothiazol-3-one] | 92 |
| O=c1c2cc(Cl)c(Cl)cc2sn1CCN1CCCC1 [Example 16, 5,6-dichloro-2-β-(1-pyrrolidinyl)ethyl-1,2-benzisothiazol-3-one] | 100 |
| COc1cc2sn(CCN3CCCC3)c(=O)c2cc1OC [Example 18] | 91 |
| O=c1c2ccccc2sn1CCN1CCCCCC1 [Example 19, 2-β-(homopiperidin-1-yl)ethyl-1,2-benzisothiazol-3-one hydrochloride] | 92 |
| O=c1c2ccccc2sn1CCN1CCc2ccccc2C1 [Example 20, 2-β-(N-tetrahydroisoquinolylethyl)-1,2-benzisothiazol-3-one hydrochloride] | 100 |
| O=c1c2ccccc2sn1CCn1sc2ccccc2c1=O [Example 21, 1,2-bis(1,2-benzisothiazol-3-on-2-yl)ethane] | 91 |
| O=c1c2ccccc2sn1CNc1ccncc1 [Example 23, 2-[4'-pyridylaminomethyl]-1,2-benzisothiazol-3-one] | 23 |
| CC1CCCCN1CCn1sc2ccccc2c1=O (stereo not shown) [Example 27] | 100 |

same assay, conditions: Homo sapiens, 0.05 h, read-out: % Inhibition of the platelet aggregation response to collagen

| SMILES | inhibition at 100 µM [%] |
| --- | --- |
| O=c1c2ccccc2sn1-c1nccs1 [Example 8, 2-(thiazol-2-yl)-1,2-benzisothiazol-3-one] | 100 |
